According to article PMC12520178, “Turn-engineering tunes the conformational rigidity of β-hairpin AMPs in achieving membrane selectivity and killing drug-resistant ESKAPE pathogens” (Chemical Science, 2025):
Converted amounts (≈) assume the structure as drawn. Read-outs that look alike come from different tables or passages of the source. Where a SMILES comes first, the peptide text is derived from it. Bridges are numbered along the chain shown (N, C = ends). [ ]: non-standard residue; d: D form. NMeR = CN[C@@H](CCCNC(=N)N)C(=O)O; dNMeR = CN[C@H](CCCNC(=N)N)C(=O)O

Key:
Escherichia coli = type: cell-based
human red blood cells [1] = assay: Hemolysis assay against human red blood cells; conditions: ≥10% hemolysis against human RBCs; 4% (v/v) hRBCs in PBS, 1.5 h at 37 °C, 405 nm; n = 3
Staphylococcus aureus = assay: microbe, parasite or virus in culture; type: cell-based
human red blood cells [2] = conditions: red cells of human
Acinetobacter baumannii = type: cell-based
Pseudomonas aeruginosa = type: cell-based
Klebsiella pneumoniae = type: cell-based
[3] = against E. coli, microbroth dilution, 5x10^5 cfu/mL, 20-24 h at 37 °C, turbidity 600 nm, n = 5, median

MIC90 (Escherichia coli)	MIC (μM) sa (Staphylococcus aureus)	MIC (μM) ab (Acinetobacter baumannii)	MIC (μM) pa (Pseudomonas aeruginosa)	MIC (μM) kp (Klebsiella pneumoniae)	MIC (μM) ec (Escherichia coli)	Structure (SMILES)	MIC90 (Escherichia coli; [3])	MHC10 (μM), minimum hemolytic concentration (human red blood cells [1])	MHC10 (μM), minimum hemolytic concentration (human red blood cells [2])
2.2 µM (≈ 4.97 µg/mL)	12.5 µM (≈ 28.2 µg/mL)	1.6 µM (≈ 3.62 µg/mL)	6.3 µM (≈ 14.2 µg/mL)	6.3 µM (≈ 14.2 µg/mL)	–	CC[C@H](C)[C@H](NC(=O)CNC(=O)[C@H](CCCNC(=N)N)NC(=O)[C@H](Cc1ccc(O)cc1)NC(=O)[C@@H](NC(=O)[C@@H](NC(=O)[C@H](CCCNC(=N)N)NC(=O)[C@H](Cc1ccccc1)NC(=O)[C@@H](NC(=O)[C@H](Cc1c[nH]c2ccccc12)NC(=O)[C@@H](N)CCCCN)[C@@H](C)O)C(C)C)[C@@H](C)O)C(=O)N[C@H](C(=O)N[C@@H](Cc1ccc(O)cc1)C(=O)N[C@@H](CCCNC(=N)N)C(=O)N[C@@H](CCCNC(=N)N)C(=O)N[C@H](C(=O)N[C@@H](CCCNC(=N)N)C(N)=O)[C@@H](C)O)[C@@H](C)O [4c] (H-KWTFRVTYRGITYRRTR-NH2)	–	–	100 µM
0.4 µM (≈ 0.915 µg/mL)	3.1 µM (≈ 7.09 µg/mL)	0.8 µM (≈ 1.83 µg/mL)	1.6 µM (≈ 3.66 µg/mL)	1.6 µM (≈ 3.66 µg/mL)	–	CC[C@H](C)[C@H](NC(=O)[C@H](CCCNC(=N)N)N(C)C(=O)[C@@H](C)NC(=O)[C@H](Cc1ccc(O)cc1)NC(=O)[C@@H](NC(=O)[C@@H](NC(=O)[C@H](CCCNC(=N)N)NC(=O)[C@H](Cc1ccccc1)NC(=O)[C@@H](NC(=O)[C@H](Cc1c[nH]c2ccccc12)NC(=O)[C@@H](N)CCCCN)[C@@H](C)O)C(C)C)[C@@H](C)O)C(=O)N[C@H](C(=O)N[C@@H](Cc1ccc(O)cc1)C(=O)N[C@@H](CCCNC(=N)N)C(=O)N[C@@H](CCCNC(=N)N)C(=O)N[C@H](C(=O)N[C@@H](CCCNC(=N)N)C(N)=O)[C@@H](C)O)[C@@H](C)O [4d] (H-KWTFRVTY[dA][NMeR]ITYRRTR-NH2)	–	–	100 µM

More lines, now with the values behind:

Structure (SMILES)	MIC90 (Escherichia coli)	MIC (μM) sa (Staphylococcus aureus)	MIC (μM) ab (Acinetobacter baumannii)	MIC (μM) pa (Pseudomonas aeruginosa)	MIC (μM) kp (Klebsiella pneumoniae)	MIC (μM) ec (Escherichia coli)	MIC90 (Escherichia coli; [3])	MHC10 (μM), minimum hemolytic concentration (human red blood cells [1])	MHC10 (μM), minimum hemolytic concentration (human red blood cells [2])
CC(C)[C@@H]1NC(=O)[C@H](CCCNC(=N)N)NC(=O)[C@H](Cc2ccccc2)NC(=O)[C@@H](NC(=O)[C@H](Cc2c[nH]c3ccccc23)NC(=O)[C@H](CCCNC(=N)N)NC(=O)[C@@H](N)CCCNC(=N)N)CSSC[C@@H](C(=O)N[C@@H](CCCNC(=N)N)C(N)=O)NC(=O)[C@H](CCCCN)NC(=O)[C@H](CCCNC(=N)N)NC(=O)[C@H](Cc2ccc(O)cc2)NC(=O)[C@@H]2CSSC[C@H](NC1=O)C(=O)N[C@@H](Cc1ccc(O)cc1)C(=O)N[C@H](C)C(=O)N(C)[C@@H](CCCNC(=N)N)C(=O)N[C@@H](Cc1ccccc1)C(=O)N2 [3a] (H-RRWCFRVCY[dA][NMeR]FCYRKCR-NH2; disulfide 4-17, 8-13)	–	–	–	–	–	–	0.7 µM (≈ 1.74 µg/mL)	12.5 µM	–
CC[C@H](C)[C@@H]1NC(=O)[C@H](CCCNC(=N)N)N(C)C(=O)[C@@H](C(C)C)NC(=O)[C@H](Cc2ccc(O)cc2)NC(=O)[C@@H]2CSSC[C@H](NC1=O)C(=O)N[C@@H](Cc1ccc(O)cc1)C(=O)N[C@@H](CCCNC(=N)N)C(=O)N[C@@H](CCCNC(=N)N)C(=O)N[C@H](C(=O)N[C@@H](CCCNC(=N)N)C(N)=O)CSSC[C@H](NC(=O)[C@H](Cc1c[nH]c3ccccc13)NC(=O)[C@@H](N)CCCCN)C(=O)N[C@@H](Cc1ccccc1)C(=O)N[C@@H](CCCNC(=N)N)C(=O)N[C@@H](C(C)C)C(=O)N2 [4b] (H-KWCFRVCY[dV][NMeR]ICYRRCR-NH2; disulfide 3-16, 7-12)	–	–	–	–	–	–	0.2 µM (≈ 0.464 µg/mL)	12.5 µM	–
CC(C)[C@H](NC(=O)[C@H](CCCNC(=N)N)NC(=O)[C@H](Cc1ccccc1)NC(=O)[C@@H](NC(=O)[C@H](Cc1c[nH]c2ccccc12)NC(=O)[C@H](CCCNC(=N)N)NC(=O)[C@@H](N)CCCNC(=N)N)[C@@H](C)O)C(=O)N[C@H](C(=O)N[C@@H](Cc1ccc(O)cc1)C(=O)N[C@@H](CCCNC(=N)N)C(=O)NCC(=O)N[C@@H](Cc1ccccc1)C(=O)N[C@H](C(=O)N[C@@H](Cc1ccc(O)cc1)C(=O)N[C@@H](CCCNC(=N)N)C(=O)N[C@@H](CCCCN)C(=O)N[C@H](C(=O)N[C@@H](CCCNC(=N)N)C(N)=O)[C@@H](C)O)[C@@H](C)O)[C@@H](C)O [3c] (H-RRWTFRVTYRGFTYRKTR-NH2)	1.9 µM (≈ 4.65 µg/mL)	6.3 µM (≈ 15.4 µg/mL)	3.1 µM (≈ 7.59 µg/mL)	6.3 µM (≈ 15.4 µg/mL)	6.3 µM (≈ 15.4 µg/mL)	–	–	–	100 µM
CC[C@H](C)[C@@H]1NC(=O)[C@H](CCCNC(=N)N)N(C)C(=O)[C@@H](C)NC(=O)[C@H](Cc2ccc(O)cc2)NC(=O)[C@@H]2CSSC[C@H](NC1=O)C(=O)N[C@@H](Cc1ccc(O)cc1)C(=O)N[C@@H](CCCNC(=N)N)C(=O)N[C@@H](CCCNC(=N)N)C(=O)N[C@H](C(=O)N[C@@H](CCCNC(=N)N)C(N)=O)CSSC[C@H](NC(=O)[C@H](Cc1c[nH]c3ccccc13)NC(=O)[C@@H](N)CCCCN)C(=O)N[C@@H](Cc1ccccc1)C(=O)N[C@@H](CCCNC(=N)N)C(=O)N[C@@H](C(C)C)C(=O)N2 [4a] (H-KWCFRVCY[dA][NMeR]ICYRRCR-NH2; disulfide 3-16, 7-12)	–	–	–	–	–	–	0.3 µM (≈ 0.688 µg/mL)	12.5 µM	–
CC(C)[C@@H](NC(=O)[C@@H](CCCNC(=N)N)NC(=O)[C@@H](Cc1ccccc1)NC(=O)[C@H](NC(=O)[C@@H](Cc1c[nH]c2ccccc12)NC(=O)[C@@H](CCCNC(=N)N)NC(=O)[C@H](N)CCCNC(=N)N)[C@H](C)O)C(=O)N[C@@H](C(=O)N[C@H](Cc1ccc(O)cc1)C(=O)N[C@@H](C)C(=O)N(C)[C@H](CCCNC(=N)N)C(=O)N[C@H](Cc1ccccc1)C(=O)N[C@@H](C(=O)N[C@H](Cc1ccc(O)cc1)C(=O)N[C@H](CCCNC(=N)N)C(=O)N[C@H](CCCCN)C(=O)N[C@@H](C(=O)N[C@H](CCCNC(=N)N)C(N)=O)[C@H](C)O)[C@H](C)O)[C@H](C)O [3f] (H-[dR][dR][dW][dT][dF][dR][dV][dT][dY]A[dNMeR][dF][dT][dY][dR][dK][dT][dR]-NH2)	0.4 µM (≈ 0.991 µg/mL)	1.2 µM (≈ 2.97 µg/mL)	1.6 µM (≈ 3.96 µg/mL)	1.6 µM (≈ 3.96 µg/mL)	3.1 µM (≈ 7.68 µg/mL)	0.4 µM (≈ 0.991 µg/mL)	–	–	100 µM
CC(C)[C@H](NC(=O)[C@H](CCCNC(=N)N)NC(=O)[C@H](Cc1ccccc1)NC(=O)[C@@H](NC(=O)[C@H](Cc1c[nH]c2ccccc12)NC(=O)[C@H](CCCNC(=N)N)NC(=O)[C@@H](N)CCCNC(=N)N)[C@@H](C)O)C(=O)N[C@H](C(=O)N[C@@H](Cc1ccc(O)cc1)C(=O)N[C@H](C)C(=O)N(C)[C@@H](CCCNC(=N)N)C(=O)N[C@@H](Cc1ccccc1)C(=O)N[C@H](C(=O)N[C@@H](Cc1ccc(O)cc1)C(=O)N[C@@H](CCCNC(=N)N)C(=O)N[C@@H](CCCCN)C(=O)N[C@H](C(=O)N[C@@H](CCCNC(=N)N)C(N)=O)[C@@H](C)O)[C@@H](C)O)[C@@H](C)O [3d] (H-RRWTFRVTY[dA][NMeR]FTYRKTR-NH2)	0.4 µM (≈ 0.991 µg/mL)	3.1 µM (≈ 7.68 µg/mL)	0.8 µM (≈ 1.98 µg/mL)	0.4 µM (≈ 0.991 µg/mL)	2.4 µM (≈ 5.95 µg/mL)	0.4 µM (≈ 0.991 µg/mL)	–	–	50 µM
CC(C)[C@@H](NC(=O)[C@@H](CCCNC(=N)N)N(C)C(=O)[C@H](C)NC(=O)[C@H](NC(=O)[C@@H](CCCNC(=N)N)NC(=O)[C@@H](C)NC(=O)[C@@H](Cc1ccc(O)cc1)NC(=O)[C@H](NC(=O)[C@H](NC(=O)[C@@H](Cc1c[nH]c2ccccc12)NC(=O)[C@H](N)CCCNC(=N)N)[C@H](C)O)C(C)C)C(C)C)C(=O)N[C@H](CCCNC(=N)N)C(=O)N[C@H](Cc1ccc(O)cc1)C(=O)N[C@H](CCCNC(=N)N)C(=O)N[C@H](CCCNC(=N)N)C(=O)N[C@@H](C(=O)N[C@H](Cc1c[nH]c2ccccc12)C(=O)O)[C@H](C)O [1f] (H-[dR][dW][dT][dV][dY][dA][dR][dV]A[dNMeR][dV][dR][dY][dR][dR][dT][dW]-OH)	0.4 µM (≈ 0.924 µg/mL)	0.8 µM (≈ 1.85 µg/mL)	3.1 µM (≈ 7.16 µg/mL)	3.1 µM (≈ 7.16 µg/mL)	3.1 µM (≈ 7.16 µg/mL)	0.4 µM (≈ 0.924 µg/mL)	–	–	100 µM
CC(C)C[C@H](NC(=O)[C@H](CCCNC(=N)N)NC(=O)CNC(=O)CNC(=O)[C@@H](N)CCCNC(=N)N)C(=O)N[C@H](C(=O)N[C@@H](Cc1ccc(O)cc1)C(=O)N[C@H](C(=O)N[C@@H](CCCNC(=N)N)C(=O)N[C@@H](CCCNC(=N)N)C(=O)N[C@@H](CCCNC(=N)N)C(=O)N[C@@H](Cc1ccccc1)C(=O)N[C@H](C(=O)N[C@H](C(=O)N[C@H](C(=O)N[C@H](C(=O)NCC(=O)N[C@@H](CCCNC(=N)N)C(N)=O)C(C)C)[C@@H](C)O)C(C)C)[C@@H](C)O)[C@@H](C)O)[C@@H](C)O [2c] (H-RGGRLTYTRRRFTVTVGR-NH2)	1 µM (≈ 2.15 µg/mL)	6.3 µM (≈ 13.6 µg/mL)	3.1 µM (≈ 6.67 µg/mL)	3.1 µM (≈ 6.67 µg/mL)	3.1 µM (≈ 6.67 µg/mL)	–	–	–	>200 µM
CC(C)[C@H](NC(=O)[C@H](CCCNC(=N)N)NC(=O)[C@H](C)NC(=O)[C@H](Cc1ccc(O)cc1)NC(=O)[C@@H](NC(=O)[C@@H](NC(=O)[C@H](Cc1c[nH]c2ccccc12)NC(=O)[C@@H](N)CCCNC(=N)N)[C@@H](C)O)C(C)C)C(=O)N[C@H](C)C(=O)N(C)[C@@H](CCCNC(=N)N)C(=O)N[C@H](C(=O)N[C@@H](CCCNC(=N)N)C(=O)N[C@@H](Cc1ccc(O)cc1)C(=O)N[C@@H](CCCNC(=N)N)C(=O)N[C@@H](CCCNC(=N)N)C(=O)N[C@H](C(=O)N[C@@H](Cc1c[nH]c2ccccc12)C(=O)O)[C@@H](C)O)C(C)C [1d] (H-RWTVYARV[dA][NMeR]VRYRRTW-OH)	0.4 µM (≈ 0.924 µg/mL)	0.6 µM (≈ 1.39 µg/mL)	1.2 µM (≈ 2.77 µg/mL)	2.4 µM (≈ 5.54 µg/mL)	0.4 µM (≈ 0.924 µg/mL)	0.4 µM (≈ 0.924 µg/mL)	–	–	100 µM
